Where “and” joins values, the source holds several entries; their conditions need not be identical. Equal entries are not always repeated.
Key:
E. cloacae = assay: Growth with or without TMI supplementation and fluorofolin, E. cloacae; type: cell-based, Enterobacter cloacae; settings: fluorofolin 2X MIC
Procedure: (§1) Where listed, growth media were prepared according manufacturer recommendations: LB broth and LB broth supplemented with 0.3 mM thymine (BD Biosciences 244610, Alfa Aesar A15879), 0.3 mM methionine (Sigma-Aldrich M9625), 0.3 mM inosine (EMD Millipore 4060), cation-adjusted Mueller–Hinton II broth (CAMHB) (BD 212322) or 0.3 mM thymidine (Sigma-Aldrich T1895), Gutnick minimal media (1.0 g l^−1 K2SO4, 13.5 g l^−1 K2HPO4, 4.7 g l^−1 KH2PO4, 0.1 g l^−1 MgSO4·7H2O, 10 mM NH4Cl as a nitrogen source and 0.4% w/v glucose as a carbon source)[65].
(§2) Extended Data Fig. 3 TMI supplementation can also rescue other species from fluorofolin DHFR inhibition. […] (f) P. aeruginosa PA14 or E. coli lptd4213 treated with fluorofolin 50 μg/mL in the presence or absence of 0.3 mM thymidine. (g) E. coli lptd4213 treated with fluorofolin 50 μg/mL and SMX (78.1 μg/mL) in the presence or absence of 0.3 mM thymidine or 0.3 mM TMI supplementation, Curves represent average optical at 600 nm (OD600) of 2 biological replicates. Means are shown. Source data

P. aeruginosa PA14 = assay: In vivo PA14 murine thigh infection; settings: neutropenic CD-1 mice, 24 h post infection; fluorofolin 25 mg kg^−1 subcutaneous and/or SMX 100 mg kg^−1 intraperitoneal at 1 and 12 h; one value per mouse
Excerpt: For P. aeruginosa thigh infection model and maximum tolerated dose (MTD) studies, care and handling of female 5–6-week-old CD-1 conformed to Institutional Animal Care and Use Committee (IACUC) policies as carried out at the University of North Texas Health Science Center (Fort Worth, Texas) under UNTHSC IACUC-approved protocol nos. IACUC-2021-0003 and IACUC-2020-0039. Rodents were fed either base chow (Envigo) or base diet supplemented with 1.8 g kg^−1 thymidine (Sigma T9250) starting at 2 days before infection. All procedures were conducted in accordance with the UNTHSC IACUC-approved protocol. Animals were housed in rooms undergoing 10–15 air changes per hour. Air provided to the animal rooms was controlled for temperature and humidity and is fully monitored 24 h a day. Air pressure was balanced according to room use. Lighting was controlled in individual rooms by automatic timers with a standard 12 h on, 12 h off cycle.
Female 5–6-week-old CD-1 mice were rendered neutropenic by intraperitoneal cyclophosphamide treatment (Cytoxan) before this study. On day 0, mice were infected intramuscularly with 5.33 log c.f.u. per thigh PA14. Mice were treated subcutaneously with fluorofolin at 1 and 12 h post infection. For co-treatment, mice were treated with SMX intraperitoneally at 1 and 12 h post infection. […] In vivo efficacy was evaluated by the UNTHSC.

S. epidermidis = assay: Growth with or without TMI supplementation and fluorofolin, S. epidermidis; type: cell-based, Staphylococcus epidermidis; settings: fluorofolin 2X MIC
Procedure: as §1, §2

[1] = system: Enterobacter cloacae ATCC BAA-1143; assay: MIC against E. cloacae in LB broth; type: cell-based; settings: ATCCBAA1143, 16 h
Procedure: (§3) Overnight cultures were diluted 1:150 in LB broth and added to a 96-well plate. Antibiotics were serially diluted 1:2 and added to columns of the 96-well plate and grown at 37 °C with continuous shaking. Cell growth was measured using optical density at 600 nm (OD600). MIC assays were performed in either BioTek Synergy HT or Tecan InfiniteM200 Pro microplate readers.

[2] = system: Escherichia coli NCM-3722; assay: MIC against E. coli NCM-3722 in LB broth; type: cell-based; settings: NCM3722, 16 h, 37 °C, OD600
Procedure: as §3

[3] = system: Staphylococcus aureus USA300; assay: MIC against S. aureus USA300 in LB broth; type: cell-based; settings: USA300, 16 h
Procedure: as §3

K. pneumoniae = assay: Growth with or without TMI supplementation and fluorofolin, K. pneumoniae; type: cell-based, Klebsiella pneumoniae; settings: fluorofolin 2X MIC
Procedure: as §1, §2

[4] = system: Escherichia coli lptD4213; assay: MIC against E. coli lptD4213 in LB broth; type: cell-based; settings: LPTD4213, 16 h
Procedure: as §3

[5] = Serum (plasma protein) binding; type: in vitro ADME
Procedure: An initial t = 0 sample was collected. […] Serum binding parameters were determined as follows: • % Bound = 100% − % Unbound • logK = log(% Bound/100 − % Bound) • % Remaining = Area-ratio6h/Area-ratio0h × 100% • % Recovery was determined as (Area-ratiobuffer-chamber + Area-ratioplasma-chamber)/(Area-ratiototal sample) × 100

human DHFR = target: T1, human DHFR (Homo sapiens, UniProt P00374); assay: Human DHFR in vitro assay; type: biochemical; settings: for Normalized activity to no drug control: human DHFR
T1 construct: purchased R&D Systems 8456-DR
T1 sequence (P00374 1-187): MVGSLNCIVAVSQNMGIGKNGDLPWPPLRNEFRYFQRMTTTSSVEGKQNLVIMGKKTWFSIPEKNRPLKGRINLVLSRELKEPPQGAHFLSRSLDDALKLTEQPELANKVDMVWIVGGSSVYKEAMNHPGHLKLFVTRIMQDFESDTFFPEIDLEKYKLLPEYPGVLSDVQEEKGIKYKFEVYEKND

[6] = system: Klebsiella pneumoniae ATCC 438165; assay: MIC against K. pneumoniae in LB broth; type: cell-based; settings: ATCC438165, 16 h, 37 °C, OD600
Procedure: as §3

ESKAPE pathogens = assay: Growth inhibition of P. aeruginosa PA01, ATTC 27853 and ESKAPE pathogens (MIC panel); type: cell-based; settings: P. aeruginosa PA01 and ATTC 27853 and all 5 ESKAPE pathogens tested
Procedure: as §3
Bacterial colonies (4–8) of strains of interest were vortexed in saline and adjusted to an OD600 of 0.2. Strains were diluted 1:200 into CAMHB media in 96-well plates. Antibiotics were serially diluted 1:3 in DMSO, and 1 μl of each dilution was added to bacteria. The plates were incubated for 18–20 h at 37 °C before observation.

[7] = mouse plasma, 1 μM, 6 h, dialysis

Nc1nc(N)c2c(ccc3c2ccn3Cc2ccnc(F)c2)n1 [fluorofolin]
rescue of growth inhibition by TMI supplementation (E. cloacae): could also be rescued from fluorofolin growth inhibition by TMI supplementation
PA14 load in thigh (P. aeruginosa PA14): 9.3 log 10(CFU/ mouse) and 9.24 log 10(CFU/ mouse) and 9.05 log 10(CFU/ mouse) and 9.1 log 10(CFU/ mouse)
rescue of growth inhibition by TMI supplementation (S. epidermidis): could also be rescued from fluorofolin growth inhibition by TMI supplementation
MIC [1]: 12.5 µg/mL
MIC [2]: 0.312 µg/mL
MIC [3]: 0.4 µg/mL
rescue of growth inhibition by TMI supplementation (K. pneumoniae): could also be rescued from fluorofolin growth inhibition by TMI supplementation
MIC [4]: 0.02 µg/mL
% Bound [5, 7]: 71.7000%
% Recovery [5, 7]: 91.8800%
% Unbound [5, 7]: 28.3000%
fraction unbound at 6 h, 1 μM ([5]; mouse plasma, 1 μM, 6 h, dialysis, read-out: % Bound (converted)): 0.283
LogK ([5]; mouse plasma, log(% Bound/(100 − % Bound))): 0.4000
recovery at 6 h, 1 μM ([5]; mouse, 1 μM, 6 h, dialysis): 91.9%
remaining at 6 h, 1 μM ([5]; mouse, read-out: % Remaining after 6 hours): 89.7%
Normalized activity to no drug control (human DHFR; Fluorofolin 0.12207 nM): 1.039
Normalized activity to no drug control (human DHFR; Fluorofolin 0.488281 nM): 1.039
Normalized activity to no drug control (human DHFR; Fluorofolin 1.95312 nM, replicates _1, _2): 0.9215 and 1.02
Normalized activity to no drug control (human DHFR; Fluorofolin 7.8125 nM, replicates _1, _2): 0.5724 and 0.64
Normalized activity to no drug control (human DHFR; Fluorofolin 31.25 nM, replicates _1, _2): 0.387 and 0.4828
Normalized activity to no drug control (human DHFR; Fluorofolin 125 nM, replicates _1, _2): 0.2567 and 0.2221
Normalized activity to no drug control (human DHFR; Fluorofolin 500 nM, replicates _1, _2): 0.1373 and 0.1034
Normalized activity to no drug control (human DHFR; Fluorofolin 2000 nM, replicates _1, _2): 0.03994 and 0.01531
IC50 (human DHFR; purified human DHFR): 14 ± 4 nM
MIC [6]: 6.25 µg/mL
concentration inhibiting growth (ESKAPE pathogens): less than 50 µg ml^−1
